pIC50: −log10 of the molar value.
Columns and labels:
[1] = molecular target: human V1a receptor (Homo sapiens, UniProt P37288); test: Cellular in vitro assay for determining vasopressin receptor activity, V1a receptor cell line (photoprotein luminescence); format: cell-based; details: for pIC50: CHO cell line transfected with the human V1a receptor, agonist [Arg8]-vasopressin at EC50 concentration, read-out: IC50 hV1a; for ratio IC50 hV2/hV1a: selectivity ratio of the cellular IC50 values
Protocol: (§1) B-1. Cellular In Vitro Assay for Determining Vasopressin Receptor Activity
(§2) The identification of agonists and antagonists of the V1a and V2 vasopressin receptors from humans, rats and dogs as well as the quantification of the activity of the compounds of the invention is carried out using recombinant cell lines. These cell lines originally derive from a hamster's ovary epithelial cell (Chinese Hamster Ovary, CHO K1, ATCC: American Type Culture Collection, Manassas, Va. 20108, USA). The test cell lines constitutively express the human, rat or dog V1a or V2 receptors. In case of the Gαq-coupled V1a receptors, cells are also stably transfected with a modified form of the calcium-sensitive photoproteins aequorin (human and rat V1a) or obelin (dog V1a), which, after reconstitution with the cofactor coelenterazine, emit light when there are increases in free calcium concentrations [Rizzuto R, Simpson A W, Brini M, Pozzan T, Nature 358, 325-327 (1992); Illarionov B A, Bondar V S, Illarionova V A, Vysotski E S, Gene 153 (2), 273-274 (1995)]. The resulting vasopressin receptor cells react to stimulation of the recombinantly expressed V1a receptors by intracellular release of calcium ions, which can be quantified by the resulting photoprotein luminescence. The Gs-coupled V2 receptors are stably transfected into cell lines expressing the gene for firefly luciferase under control of a CRE-responsible promoter. Activation of V2 receptors induces the activation of the CRE-responsive promoter via cAMP increase, thereby inducing the expression of firefly luciferase. The light emitted by photoproteins of V1a cell lines as well as the light emitted by firefly luciferase of V2 cell lines corresponds to the activation or inhibition of the respective vasopressin receptor. The bioluminescence of the cell lines is detected using a suitable luminometer [Milligan G, Marshall F, Rees S, Trends in Pharmacological Sciences 17, 235-237 (1996)].
Vasopressin V1a Receptor Cell Lines:
On the day before the assay, the cells are plated out in culture medium (DMEM/F12, 2% FCS, 2 mM glutamine, 10 mM HEPES, 5 μg/ml coelenterazine) in 384-well microtiter plates and kept in a cell incubator (96% humidity, 5% v/v CO2, 37° C.). On the day of the assay, test compounds in various concentrations are placed for 10 minutes in the wells of the microtiter plate before the agonist [Arg^8]-vasopressin at EC50 concentration is added. The resulting light signal is measured immediately in a luminometer.
(§3) Table 1A below lists individual IC50 values for the compounds of the invention (including racemic mixtures as well as separated enantiomers) that were obtained from cell lines transfected with the human V1a or V2 receptor: […]

[2] = molecular target: T1, human V2 receptor (Homo sapiens, UniProt P30518); test: Cellular in vitro assay for determining vasopressin receptor activity, V2 receptor cell line (CRE-luciferase); format: cell-based; details: CHO cell line transfected with the human V2 receptor; agonist [Arg8]-vasopressin at EC50 concentration; read-out: IC50 hV2
T1 construct: expressed in transfected cells; host or cells: CHO K1 (ATCC) expressing firefly luciferase under a CRE-responsive promoter
T1 sequence (P30518 whole entry): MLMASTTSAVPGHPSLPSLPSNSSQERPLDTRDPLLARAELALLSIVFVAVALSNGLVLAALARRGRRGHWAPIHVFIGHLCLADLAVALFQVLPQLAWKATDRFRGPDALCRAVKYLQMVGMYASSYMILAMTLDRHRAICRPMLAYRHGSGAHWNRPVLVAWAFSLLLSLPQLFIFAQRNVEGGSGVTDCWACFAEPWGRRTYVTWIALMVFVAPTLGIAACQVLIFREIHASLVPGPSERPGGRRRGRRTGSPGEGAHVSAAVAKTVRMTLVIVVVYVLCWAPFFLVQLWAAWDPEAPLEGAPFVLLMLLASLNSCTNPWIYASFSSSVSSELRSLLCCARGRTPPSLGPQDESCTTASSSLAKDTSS
Protocol: as §1, §2
Vasopressin V2 Receptor Cell Lines:
On the day before the assay, the cells are plated out in culture medium (DMEM/F12, 2% FCS, 2 mM glutamine, 10 mM HEPES) in 384-well microtiter plates and kept in a cell incubator (96% humidity, 5% v/v CO2, 37° C.). On the day of the assay, test compounds in various concentrations and the agonist [Arg^8]-vasopressin at EC50 concentration are added together to the wells, and plates are incubated for 3 hours in a cell incubator. Upon addition of the cell lysis reagent Triton™ and the substrate luciferin, luminescence of firefly luciferase is measured in a luminometer.
as §3

human V1a receptor, sequence (P37288 whole entry): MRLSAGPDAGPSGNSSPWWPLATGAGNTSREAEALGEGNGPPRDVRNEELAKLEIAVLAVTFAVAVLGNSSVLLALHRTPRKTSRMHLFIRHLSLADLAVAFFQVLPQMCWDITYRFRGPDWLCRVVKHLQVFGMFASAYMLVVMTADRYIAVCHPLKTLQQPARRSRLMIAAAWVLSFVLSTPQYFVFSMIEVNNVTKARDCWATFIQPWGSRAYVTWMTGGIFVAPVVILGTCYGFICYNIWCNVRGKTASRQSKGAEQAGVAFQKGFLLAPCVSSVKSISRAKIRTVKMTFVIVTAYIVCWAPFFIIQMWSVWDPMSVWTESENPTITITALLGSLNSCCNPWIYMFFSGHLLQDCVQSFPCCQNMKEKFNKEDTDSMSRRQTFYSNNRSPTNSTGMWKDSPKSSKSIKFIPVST

pIC50 [1] | ratio IC50 hV2/hV1a [1] | pIC50 [2] | Compound
8.67 | 2.1 | 8.34 | O=c1n(Cc2nc(NCCO)n(-c3cccc(F)c3)n2)nc(-c2ccc(Cl)cc2)n1C[C@H](O)C(F)(F)F [Example 123, 5-(4-Chlorophenyl)-2-({1-(3-fluorophenyl)-5-[(2-hydroxyethyl)amino]-1H-1,2,4-triazol-3-yl}methyl)-4-[(2S)-3,3,3-trifluoro-2-hydroxypropyl]-2,4-dihydro-3H-1,2,4-triazol-3-one]
9.48 | 2.5 | 9.09 | O=C1NCCC1Nc1nc(Cn2nc(-c3ccc(Cl)cc3)n(C[C@H](O)C(F)(F)F)c2=O)nn1-c1ccccc1Cl (mixture of isomers) [Example 16, 5-(4-Chlorophenyl)-2-{[1-(2-chlorophenyl)-5-{[2-oxopyrrolidin-3-yl]amino}-1H-1,2,4-triazol-3-yl]methyl}-4-[(2S)-3,3,3-trifluoro-2-hydroxypropyl]-2,4-dihydro-3H-1,2,4-triazol-3-one]
9.40 | 8.9 | 8.45 | O=c1n(Cc2nc(N3CCC4OCCC43)n(-c3ccccc3Cl)n2)nc(-c2ccc(Cl)cc2)n1C[C@H](O)C(F)(F)F (stereo partly drawn) [Example 38, 5-(4-Chlorophenyl)-2-{[1-(2-chlorophenyl)-5-(hexahydro-4H-furo[3,2-b]pyrrol-4-yl)-1H-1,2,4-triazol-3-yl]methyl}-4-[(2S)-3,3,3-trifluoro-2-hydroxypropyl]-2,4-dihydro-3H-1,2,4-triazol-3-one]
7.52 | 8.2 | 6.61 | O=c1n(Cc2nc(N3CCOC(C(F)(F)F)C3)n(CCC(F)(F)F)n2)nc(-c2ccc(Cl)cc2)n1C[C@H](O)C(F)(F)F (mixture of isomers) [Example 103, 5-(4-Chlorophenyl)-4-[(2S)-3,3,3-trifluoro-2-hydroxypropyl]-2-({5-[2-(trifluoromethyl)morpholin-4-yl]-1-(3,3,3-trifluoropropyl)-1H-1,2,4-triazol-3-yl}methyl)-2,4-dihydro-3H-1,2,4-triazol-3-one]
7.66 | 8.2 | 6.74 | O=c1n(Cc2nc(N3CCOC(C(F)(F)F)C3)n(CCC(F)(F)F)n2)nc(-c2ccc(Cl)cc2)n1C[C@H](O)C(F)(F)F (single isomer, unassigned) [Example 105]
7.55 | 112.5 | 5.50 | CC(C)(N)CNc1nc(Cn2nc(-c3ccc(Cl)cc3)n(C[C@H](O)C(F)(F)F)c2=O)nn1-c1ccccn1 [Example 93, 2-({5-[(2-Amino-2-methylpropyl)amino]-1-(pyridin-2-yl)-1H-1,2,4-triazol-3-yl}methyl)-5-(4-chlorophenyl)-4-[(2S)-3,3,3-trifluoro-2-hydroxypropyl]-2,4-dihydro-3H-1,2,4-triazol-3-one]
9.32 | 4.0 | 8.72 | COC1CCN(c2nc(Cn3nc(-c4ccc(Cl)cc4)n(C[C@H](O)C(F)(F)F)c3=O)nn2-c2ccccc2Cl)C1 (mixture of isomers) [Example 42, 5-(4-Chlorophenyl)-2-({1-(2-chlorophenyl)-5-[3-methoxypyrrolidin-1-yl]-1H-1,2,4-triazol-3-yl}methyl)-4-[(2S)-3,3,3-trifluoro-2-hydroxypropyl]-2,4-dihydro-3H-1,2,4-triazol-3-one]
9.09 | 1.7 | 8.87 | O=C1NCCC1Nc1nc(Cn2nc(-c3ccc(Cl)cc3)n(C[C@H](O)C(F)(F)F)c2=O)nn1-c1ccccc1Cl (single isomer, unassigned) [Example 18]
9.07 | 7.5 | 8.19 | CC(C)(O)CNc1nc(Cn2nc(-c3ccc(Cl)cc3)n(C[C@H](O)C(F)(F)F)c2=O)nn1-c1ccccc1Cl [Example 82, 5-(4-Chlorophenyl)-2-({1-(2-chlorophenyl)-5-[(2-hydroxy-2-methylpropyl)amino]-1H-1,2,4-triazol-3-yl}methyl)-4-[(2S)-3,3,3-trifluoro-2-hydroxypropyl]-2,4-dihydro-3H-1,2,4-triazol-3-one]
7.99 | 34.5 | 6.46 | O=C1CCC(Nc2nc(Cn3nc(-c4ccc(Cl)cc4)n(C[C@H](O)C(F)(F)F)c3=O)nn2CCC(F)(F)F)CN1 (mixture of isomers) [Example 99, 5-{[3-({3-(4-Chlorophenyl)-5-oxo-4-[(2S)-3,3,3-trifluoro-2-hydroxypropyl]-4,5-dihydro-1H-1,2,4-triazol-1-yl}methyl)-1-(3,3,3-trifluoropropyl)-1H-1,2,4-triazol-5-yl]amino}piperidin-2-one]
8.97 | 7.7 | 8.08 | CC1(O)CCN(c2nc(Cn3nc(-c4ccc(Cl)cc4)n(C[C@H](O)C(F)(F)F)c3=O)nn2-c2ccccc2Cl)C1 (single isomer, unassigned) [Example 31]
7.52 | 12.0 | 6.44 | O=c1n(Cc2nc(N3CCOC(C(F)(F)F)C3)n(CCC(F)(F)F)n2)nc(-c2ccc(Cl)cc2)n1C[C@H](O)C(F)(F)F (single isomer, unassigned) [Example 104]
9.21 | 3.5 | 8.67 | CC(C)(CF)CNc1nc(Cn2nc(-c3ccc(Cl)cc3)n(C[C@H](O)C(F)(F)F)c2=O)nn1-c1ccccc1Cl [Example 3, 5-(4-Chlorophenyl)-2-({1-(2-chlorophenyl)-5-[(3-fluoro-2,2-dimethylpropyl)amino]-1H-1,2,4-triazol-3-yl}methyl)-4-[(2S)-3,3,3-trifluoro-2-hydroxypropyl]-2,4-dihydro-3H-1,2,4-triazol-3-one]
9.47 | 3.5 | 8.94 | NS(=O)(=O)CCNc1nc(Cn2nc(-c3ccc(Cl)cc3)n(C[C@H](O)C(F)(F)F)c2=O)nn1-c1ccccc1Cl [Example 44, 2-{[1-(2-Chlorophenyl)-3-({3-(4-chlorophenyl)-5-oxo-4-[(2S)-3,3,3-trifluoro-2-hydroxypropyl]-4,5-dihydro-1H-1,2,4-triazol-1-yl}methyl)-1H-1,2,4-triazol-5-yl]amino}ethanesulfonamide]
9.44 | 7.8 | 8.55 | O=c1n(Cc2nc(NCCO)n(-c3ccccc3Cl)n2)nc(-c2ccc(Cl)cc2)n1C[C@H](O)C(F)(F)F [Example 80, 5-(4-Chlorophenyl)-2-({1-(2-chlorophenyl)-5-[(2-hydroxyethyl)amino]-1H-1,2,4-triazol-3-yl}methyl)-4-[(2S)-3,3,3-trifluoro-2-hydroxypropyl]-2,4-dihydro-3H-1,2,4-triazol-3-one]

Compound | pIC50 [1] | ratio IC50 hV2/hV1a [1] | pIC50 [2]
O=C1CCC(CNc2nc(Cn3nc(-c4ccc(Cl)cc4)n(C[C@H](O)C(F)(F)F)c3=O)nn2-c2ccccc2Cl)N1 (single isomer, unassigned) [Example 65] | 9.20 | 10.2 | 8.19
O=C1CCC(CNc2nc(Cn3nc(-c4ccc(Cl)cc4)n(C[C@H](O)C(F)(F)F)c3=O)nn2-c2ccccc2Cl)N1 (single isomer, unassigned) [Example 64] | 9.10 | 5.5 | 8.36
